SMILES strings stand for the structures. Several values for one entry are separate records, joined by “and”; a condition that tells them apart may be missing. Equal values may be shown once.

The record followed here is patent US20230322724A1, “HETEROCYCLIC COMPOUNDS AS CBP/EP300 BROMODOMAIN INHIBITORS” (AURIGENE ONCOLOGY LIMITED, priority 2020, published 2023).

Assay [1] deals with T1, recombinant P300 bromodomain (Homo sapiens, UniProt Q09472).
T1 construct: recombinant P300 bromodomain obtained from BPS Bioscience, USA; purchased BPS Bioscience, USA
T1 sequence (Q09472 1049-1156 limits assumed): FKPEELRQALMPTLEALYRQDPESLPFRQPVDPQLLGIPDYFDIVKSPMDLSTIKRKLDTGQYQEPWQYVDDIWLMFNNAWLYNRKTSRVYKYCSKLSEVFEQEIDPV
The assay is described as follows: P300 TR-FRET displacement assay. It is filed as binding. The conditions noted are these: dose-response, read-out: IC50 (group A, B, C). On the procedure:
The potency of compounds to inhibit P300 enzyme was tested in a TR-FRET displacement assay using recombinant P300 bromodomain obtained from BPS Bioscience, USA. The assay buffer was 50 mM HEPES (pH 7.5), 50 mM NaCl, 0.008% Brij 35, 0.01% BSA, 1 mM TCEP. 50 nM of P300 & 500 nM of Biotinylated ligand was incubated at room temperature for 30 minutes, the reaction was initiated by adding the pre-incubated enzyme ligand mixture to the test compounds. After 60 min incubation, the reaction was stopped by the addition of stop mix containing 1 nM of LANCE Europium-anti-6xHis antibody (Perkin Elmer, USA) and 40 nM of Sure Light Allophycocyanin-Streptavidin (Perkin Elmer, USA). Fluorescence emission of the samples at 665 and 615 nm were measured at an excitation of 340 nm and their ratio was plotted against the compound concentrations to generate dose-response curve.
Selected compounds of the present invention were screened in the above-mentioned assay procedures and IC50 values were determined by fitting the dose-response data to sigmoidal curve fitting equation using Graph pad prism software V7.
On the technique in general: TR-FRET usually uses a lanthanide donor and a delayed reading to cut background.

Assay [2] has as its target T2, recombinant CREBBP bromodomain (Homo sapiens, UniProt Q92793).
T2 construct: recombinant CREBBP bromodomain obtained from BPS Bioscience, USA; purchased BPS Bioscience, USA
The assay is described as follows: CBP TR-FRET displacement assay. It is filed as binding. The conditions noted are these: for IC50: dose-response, read-out: IC50 (group A, B, C); for inhibition at 10 µM: compound at 10 μM. The essentials:
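CREBBP bromodomain (50 nM) preincubated 30 min at room temperature with 500 nM biotinylated ligand in HEPES pH 7.5 buffer with TCEP, then 60 min with compound. Eu-anti-His/APC-streptavidin TR-FRET 665/615 nm ratio read; IC50 from sigmoidal dose-response fit.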

T2 sequence (Q92793 1085-1192 limits assumed): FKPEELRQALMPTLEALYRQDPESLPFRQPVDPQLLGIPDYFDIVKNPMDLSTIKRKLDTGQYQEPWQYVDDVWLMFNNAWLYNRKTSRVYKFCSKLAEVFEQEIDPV

The term IC50 denotes the concentration that inhibits the measured activity by half. As for `Cc1cc2c(N3CCN(C)c4cc(-c5cnn(C)c5)c(C#N)cc43)cc(OCC(=O)OC(C)(C)C)cc2n(C)c1=O` [Example 3, Tert-butyl 2-((5-(7-cyano-4-methyl-6-(1-methyl-1H-pyrazol-4-yl)-3,4-dihydroquinoxalin-1(2H)-yl)-1,3-dimethyl-2-oxo-1,2-dihydroquinolin-7-yl)oxy)acetate], the figures for the IC50 in assay [1] and in assay [2] were more than 50000 nM and more than 10 nM, respectively.

With `COc1cc(N2CCN(C)c3cc(C4=CCN(C)CC4)c(C#N)cc32)c2cc(C)c(=O)n(C)c2c1` [Example 17], the IC50 was more than 50000 nM in assay [1] and less than 50 nM in assay [2].

Regarding `Cc1cc2c(N3CCN(C)c4cc(-c5cnn(C)c5)c(C#N)cc43)cc(OCC(=O)O)cc2n(C)c1=O` [Example 71, 2-((5-(7-Cyano-4-methyl-6-(1-methyl-1H-pyrazol-4-yl)-3,4-dihydroquinoxalin-1(2H)-yl)-1,3-dimethyl-2-oxo-1,2-dihydroquinolin-7-yl)oxy)acetic acid], the IC50 was less than 25 nM in assay [1] and less than 50 nM in assay [2].

For `Cc1cc2c(N3CCN(C)c4cc(-c5cnn(C)c5)ncc43)cc(N3CCOCC3)cc2n(C)c1=O` [Example 134], the IC50 in assay [1] is more than 50000 nM; in assay [2], < 50 nM and 51 to 100 nM.

On to `COc1cc(N2CCN(C)c3cc(-c4c(C)nn(C)c4C)c(C#N)cc32)c2cc(C)c(=O)n(C)c2c1` [Example 12], for which the IC50 in assay [1] is less than 25 nM; in assay [2], less than 50 nM.

`COc1cc(N2CCN(C)c3cc(N4CCN(C)CC4)c(C#N)cc32)c2cc(C)c(=O)n(C)c2c1` [Example 19]: the IC50 in assay [1] was 25 to 50 nM; in assay [2], less than 50 nM.

On to `COc1cc(N2CCN(C)c3cc(N4CCOCC4)c(C#N)cc32)c2cc(C)c(=O)n(C)c2c1` [Example 18], for which the IC50 was 25 to 50 nM in assay [1] and less than 50 nM in assay [2].

As for `COc1cc(N2CCNc3cc(-c4cnn(C)c4)c(C#N)cc32)c2cc(C)c(=O)n(C)c2c1` [Example 62, 4-(7-methoxy-1,3-dimethyl-2-oxo-1,2-dihydroquinolin-5-yl)-7-(1-methyl-1H-pyrazol-4-yl)-1,2,3,4-tetrahydroquinoxaline-6-carbonitrile], the IC50 is 25 to 50 nM in assay [1] and more than 10 nM in assay [2].

As to `Cc1cc2c(N3CCCc4cc(-c5cnn(C)c5)c(C(F)F)cc43)nc(N3CC[C@H](O)C3)cc2n(C)c1=O` [Example 210], the results for the IC50 in assay [1] and in assay [2] were 25 to 50 nM and less than 50 nM, respectively.

The term inhibition denotes the percentage by which the read-out fell short of the control. On to `COCCOc1cc(N2CCN(C)c3cc(-c4cnn(C)c4)c(C#N)cc32)c2cc(C)c(=O)n(C)c2c1` [Example 37], for which the IC50 in assay [1] was less than 25 nM. In assay [2], the inhibition at 10 µM is 100% and the IC50 is less than 50 nM.

Consider `COc1cc(N2CCN(C)c3cc(N4CCC(O)C4)c(C#N)cc32)c2cc(C)c(=O)n(C)c2c1` (stereo not drawn) [Example 20], for which the IC50 in assay [1] is 25 to 50 nM; in assay [2], less than 50 nM.

For the molecule `Cc1cc2c(N3CCN(C)c4cc(-c5cnn(C)c5)ncc43)cc(N3C[C@@H]4C[C@H]3CO4)cc2n(C)c1=O` [Example 146, 7-((1S,4S)-2-oxa-5-azabicyclo[2.2.1]heptan-5-yl)-1,3-dimethyl-5-(1-methyl-7-(1-methyl-1H-pyrazol-4-yl)-2,3-dihydropyrido[3,4-b]pyrazin-4(1H)-yl)quinolin-2(1H)-one], the IC50 was more than 50000 nM in assay [1] and less than 50 nM in assay [2].

As to `Cc1cc2c(N3CCCc4cc(-c5cnn(C)c5)c(C(F)F)cc43)nc(N3C[C@@H](O)[C@H](O)C3)cc2n(C)c1=O` [Example 215], the IC50 in assay [1] was less than 25 nM; in assay [2], less than 50 nM.

With `COC(=O)c1cc2c(cc1C#N)N(c1cc(OC)cc3c1cc(C)c(=O)n3C)CCN2C` [Example 67, methyl 7-cyano-1-(7-methoxy-1,3-dimethyl-2-oxo-1,2-dihydroquinolin-5-yl)-4-methyl-1,2,3,4-tetrahydroquinoxaline-6-carboxylate], the IC50 was 25 to 50 nM in assay [1] and less than 50 nM in assay [2].

Regarding `CNC(=O)[C@H]1CCN(c2cc3c(cc(C)c(=O)n3C)c(N3CCCc4cc(-c5cnn(C)c5)c(C(F)F)cc43)n2)C1` [Example 212], the IC50 in assay [1] is less than 25 nM; in assay [2], less than 50 nM.

As to `Cc1cc2c(N3CCN(C)c4cc(-c5cnn(C)c5)c(F)cc43)cc(N3CCOCC3)cc2n(C)c1=O` [Example 48], the IC50 is less than 25 nM in assay [1] and less than 50 nM in assay [2].

As to `Cc1cc2c(N3CCN(C)c4cc(-c5cnn(C)c5)c(C#N)cc43)cc(OCCO)cc2n(C)c1=O` [Example 60, 4-(7-(2-Hydroxyethoxy)-1,3-dimethyl-2-oxo-1,2-dihydroquinolin-5-yl)-1-methyl-7-(1-methyl-1H-pyrazol-4-yl)-1,2,3,4-tetrahydroquinoxaline-6-carbonitrile], the IC50 was less than 25 nM in assay [1] and less than 50 nM in assay [2].

For the molecule `Cc1cc2c(N3CCN(C)c4cc(-c5cnn(C)c5)c(C=O)cc43)cccc2[nH]c1=O` [Example 57, 1-Methyl-7-(1-methyl-1H-pyrazol-4-yl)-4-(3-methyl-2-oxo-1,2-dihydroquinolin-5-yl)-1,2,3,4-tetrahydroquinoxaline-6-carbaldehyde], the IC50 in assay [1] was more than 50000 nM; in assay [2], more than 10 nM.

For `Cc1cc2c(N3CCCc4cc(-c5cnn(C)c5)c(C(F)F)cc43)nc(N3CC4(COC4)C3)cc2n(C)c1=O` [Example 224], the IC50 is more than 50000 nM in assay [1] and less than 50 nM in assay [2].

Take `Cc1cc2c(N3CCCc4cc(-c5cnn(C)c5)c(C(F)F)cc43)nc(N3CC[C@@H](O)C3)cc2n(C)c1=O` [Example 209]: the values for the IC50 in assay [1] and in assay [2] were less than 25 nM and less than 50 nM, respectively.

In the case of `COc1cc(N2CCN(C)c3ccc(-c4cnn(C)c4)cc32)c2cc(C)c(=O)n(C)c2c1` [Example 80], the IC50 in assay [1] is more than 50000 nM; in assay [2], more than 10 nM.

In the case of `Cc1cc2c(N3CCN(C)c4cc(-c5cnn(C)c5)c(C#N)cc43)cc(OCCN(C)C)cc2n(C)c1=O` [Example 39], the results for the IC50 in assay [1] and in assay [2] were less than 25 nM and less than 50 nM, respectively.

As to `Cc1cc2c(N3CCCc4cc(-c5cnn(C)c5)c(C(F)F)cc43)cc(N3CCOCC3)cc2n(C)c1=O` [Example 178], the IC50 in assay [1] was less than 25 nM; in assay [2], less than 50 nM.

For the molecule `COc1cc(N2CCN(C)c3cc(-c4cccnc4)c(C#N)cc32)c2cc(C)c(=O)n(C)c2c1` [Example 15], the figures for the 50% inhibitory concentration (IC50) in assay [1] and in assay [2] were 25 to 50 nM and less than 50 nM, respectively.

As for `COc1cc(N2CCN(C3CC3)c3cc(N4CCN(C)CC4)c(C#N)cc32)c2cc(C)c(=O)n(C)c2c1` [Example 25], the IC50 was 25 to 50 nM in assay [1] and less than 50 nM in assay [2].

On to `Cc1cc2c(N3CCCc4cc(-c5cnn(C)c5)c(C(F)F)cc43)nc(N3CCC4(COC4)C3)cc2n(C)c1=O` [Example 225], for which the IC50 in assay [1] is 25 to 50 nM; in assay [2], less than 50 nM.

Consider `Cc1cc2c(N3CCN(C)c4cc(-c5cnn(C)c5)c(C#N)cc43)cc(OCC3CCCN(C)C3)cc2n(C)c1=O` (stereo not drawn) [Example 35], for which the IC50 in assay [1] is less than 25 nM. Also, in assay [2], the inhibition at 10 µM amounted to 96% and the IC50 was less than 50 nM.

As for `COc1cc(N2CCN(C)c3cc(-n4cc(C)cn4)c(C#N)cc32)c2cc(C)c(=O)n(C)c2c1` [Example 10], the IC50 was 25 to 50 nM in assay [1] and less than 50 nM in assay [2].

On to `Cc1cc2c(N3CCN(C)c4cc(-c5cnn(C)c5)c(C#N)cc43)cc(OCC3CCCN(C)C3)cc2n(C)c1=O` (single isomer, unassigned) [Example 247, 4-(1,3-Dimethyl-7-((1-methylpiperidin-3-yl)methoxy)-2-oxo-1,2-dihydroquinolin-5-yl)-1-methyl-7-(1-methyl-1H-pyrazol-4-yl)-1,2,3,4-tetrahydroquinoxaline-6-carbonitrile], for which the IC50 in assay [1] was less than 25 nM. For the same molecule, in assay [2], the inhibition at 10 µM amounted to 95% and the concentration for half-maximal inhibition (IC50) was less than 50 nM.

Consider `CNC(=O)c1ccc(-c2cc3c(cc2C#N)N(c2cc(OC)cc4c2cc(C)c(=O)n4C)CCN3C)cn1` [Example 11], for which the results for the IC50 in assay [1] and in assay [2] were less than 25 nM and less than 50 nM, respectively.

Regarding `COc1cc(N2CCN(C)c3cc(-c4ccn(C)n4)c(C#N)cc32)c2cc(C)c(=O)n(C)c2c1` [Example 14], the IC50 was less than 25 nM in assay [1] and less than 50 nM in assay [2].

Consider `Cc1cc2c(N3CCCc4cc(-c5cnn(C)c5)c(C(F)F)cc43)nc(N3CCOCC3)cc2n(C)c1=O` [Example 234, 5-(7-(Difluoromethyl)-6-(1-methyl-1H-pyrazol-4-yl)-3,4-dihydroquinolin-1(2H)-yl)-1,3-dimethyl-7-morpholino-1,6-naphthyridin-2(1H)-one], for which the values for the IC50 in assay [1] and in assay [2] were less than 25 nM and less than 50 nM, respectively.

Turning to `Cc1cc2c(N3CCN(C)c4cc(-c5cnn(C)c5)c(C#N)cc43)cc(OC3COC3)cc2n(C)c1=O` [Example 40], the IC50 was 25 to 50 nM in assay [1] and less than 50 nM in assay [2].
